# The NIST ThermoML archive (doi:10.1021/je400184t)
# Numbers after ± are expanded uncertainties.
# Assay: excess molar enthalpy (molar enthalpy of mixing); xn = mol fraction of the nth substance listed
# Details: 298.15 K, 101 kPa, Liquid, Calvet calorimetry
structure (smiles),measurement,setting,value
CN(CCO)CCO [N-methyldiethanolamine] + c1ccncc1,excess molar enthalpy,x2 = 0.00136,-0.000478 ± 0.000478 kcal/mol
same,excess molar enthalpy,x2 = 0.00718,-0.00191 ± 0.000478 kcal/mol
same,excess molar enthalpy,x2 = 0.01292,-0.00335 ± 0.000478 kcal/mol
same,excess molar enthalpy,x2 = 0.0186,-0.00454 ± 0.000478 kcal/mol
same,excess molar enthalpy,x2 = 0.02422,-0.00598 ± 0.000478 kcal/mol
same,excess molar enthalpy,x2 = 0.03106,-0.00717 ± 0.000478 kcal/mol
same,excess molar enthalpy,x2 = 0.0378,-0.00837 ± 0.000478 kcal/mol
same,excess molar enthalpy,x2 = 0.04445,-0.00956 ± 0.000478 kcal/mol
same,excess molar enthalpy,x2 = 0.051,-0.0105 ± 0.000478 kcal/mol
same,excess molar enthalpy,x2 = 0.05747,-0.0115 ± 0.000478 kcal/mol
same,excess molar enthalpy,x2 = 0.06385,-0.0124 ± 0.000478 kcal/mol
same,excess molar enthalpy,x2 = 0.0715,-0.0134 ± 0.000478 kcal/mol
same,excess molar enthalpy,x2 = 0.07636,-0.0143 ± 0.000478 kcal/mol
same,excess molar enthalpy,x2 = 0.08249,-0.0151 ± 0.000478 kcal/mol
same,excess molar enthalpy,x2 = 0.08853,-0.0158 ± 0.000478 kcal/mol
same,excess molar enthalpy,x2 = 0.0945,-0.0165 ± 0.000478 kcal/mol
same,excess molar enthalpy,x2 = 0.1062,-0.0172 ± 0.000478 kcal/mol
same,excess molar enthalpy,x2 = 0.1119,-0.0179 ± 0.000478 kcal/mol
same,excess molar enthalpy,x2 = 0.1176,-0.0186 ± 0.000478 kcal/mol
same,excess molar enthalpy,x2 = 0.1232,-0.0191 ± 0.000478 kcal/mol
same,excess molar enthalpy,x2 = 0.1287,-0.0198 ± 0.000478 kcal/mol
same,excess molar enthalpy,x2 = 0.1342,-0.0203 ± 0.000478 kcal/mol
same,excess molar enthalpy,x2 = 0.139,-0.0208 ± 0.000478 kcal/mol
same,excess molar enthalpy,x2 = 0.1396,-0.0215 ± 0.000478 kcal/mol
same,excess molar enthalpy,x2 = 0.1449,-0.022 ± 0.000478 kcal/mol
same,excess molar enthalpy,x2 = 0.1528,-0.0225 ± 0.000478 kcal/mol
same,excess molar enthalpy,x2 = 0.1606,-0.0232 ± 0.000478 kcal/mol
same,excess molar enthalpy,x2 = 0.2605,-0.0282 ± 0.000717 kcal/mol
same,excess molar enthalpy,x2 = 0.2684,-0.0284 ± 0.000717 kcal/mol
same,excess molar enthalpy,x2 = 0.2722,-0.0287 ± 0.000717 kcal/mol
same,excess molar enthalpy,x2 = 0.278,-0.0287 ± 0.000717 kcal/mol
same,excess molar enthalpy,x2 = 0.2817,-0.0289 ± 0.000717 kcal/mol
same,excess molar enthalpy,x2 = 0.2854,-0.0287 ± 0.000717 kcal/mol
same,excess molar enthalpy,x2 = 0.2891,-0.0287 ± 0.000717 kcal/mol
same,excess molar enthalpy,x2 = 0.2928,-0.0289 ± 0.000717 kcal/mol
same,excess molar enthalpy,x2 = 0.2964,-0.0289 ± 0.000717 kcal/mol
same,excess molar enthalpy,x2 = 0.2999,-0.0289 ± 0.000717 kcal/mol
same,excess molar enthalpy,x2 = 0.3034,-0.0289 ± 0.000717 kcal/mol
same,excess molar enthalpy,x2 = 0.3069,-0.0289 ± 0.000717 kcal/mol
same,excess molar enthalpy,x2 = 0.3104,-0.0289 ± 0.000717 kcal/mol
same,excess molar enthalpy,x2 = 0.3138,-0.0289 ± 0.000717 kcal/mol
same,excess molar enthalpy,x2 = 0.3172,-0.0287 ± 0.000717 kcal/mol
same,excess molar enthalpy,x2 = 0.3206,-0.0287 ± 0.000717 kcal/mol
same,excess molar enthalpy,x2 = 0.3239,-0.0287 ± 0.000717 kcal/mol
same,excess molar enthalpy,x2 = 0.3272,-0.0287 ± 0.000717 kcal/mol
same,excess molar enthalpy,x2 = 0.3304,-0.0287 ± 0.000717 kcal/mol
same,excess molar enthalpy,x2 = 0.3337,-0.0287 ± 0.000717 kcal/mol
same,excess molar enthalpy,x2 = 0.3368,-0.0287 ± 0.000717 kcal/mol
same,excess molar enthalpy,x2 = 0.34,-0.0287 ± 0.000717 kcal/mol
same,excess molar enthalpy,x2 = 0.3431,-0.0284 ± 0.000717 kcal/mol
same,excess molar enthalpy,x2 = 0.3463,-0.0284 ± 0.000717 kcal/mol
same,excess molar enthalpy,x2 = 0.3493,-0.0284 ± 0.000717 kcal/mol
same,excess molar enthalpy,x2 = 0.3524,-0.0284 ± 0.000717 kcal/mol
same,excess molar enthalpy,x2 = 0.3554,-0.0284 ± 0.000717 kcal/mol
same,excess molar enthalpy,x2 = 0.3584,-0.0282 ± 0.000717 kcal/mol
same,excess molar enthalpy,x2 = 0.3614,-0.0282 ± 0.000717 kcal/mol
same,excess molar enthalpy,x2 = 0.3643,-0.0282 ± 0.000717 kcal/mol
same,excess molar enthalpy,x2 = 0.3672,-0.0282 ± 0.000717 kcal/mol
same,excess molar enthalpy,x2 = 0.3701,-0.028 ± 0.000717 kcal/mol
same,excess molar enthalpy,x2 = 0.3729,-0.028 ± 0.000717 kcal/mol
same,excess molar enthalpy,x2 = 0.3758,-0.028 ± 0.000717 kcal/mol
same,excess molar enthalpy,x2 = 0.3786,-0.0277 ± 0.000717 kcal/mol
same,excess molar enthalpy,x2 = 0.3814,-0.0277 ± 0.000717 kcal/mol
same,excess molar enthalpy,x2 = 0.3841,-0.0277 ± 0.000717 kcal/mol
same,excess molar enthalpy,x2 = 0.3868,-0.0277 ± 0.000717 kcal/mol
same,excess molar enthalpy,x2 = 0.3895,-0.0275 ± 0.000717 kcal/mol
same,excess molar enthalpy,x2 = 0.3922,-0.0275 ± 0.000717 kcal/mol
same,excess molar enthalpy,x2 = 0.3949,-0.0275 ± 0.000717 kcal/mol
same,excess molar enthalpy,x2 = 0.3975,-0.0272 ± 0.000717 kcal/mol
same,excess molar enthalpy,x2 = 0.4001,-0.0272 ± 0.000717 kcal/mol
same,excess molar enthalpy,x2 = 0.4027,-0.0272 ± 0.000717 kcal/mol
same,excess molar enthalpy,x2 = 0.4053,-0.027 ± 0.000717 kcal/mol
same,excess molar enthalpy,x2 = 0.4078,-0.027 ± 0.000717 kcal/mol
same,excess molar enthalpy,x2 = 0.4104,-0.027 ± 0.000717 kcal/mol
same,excess molar enthalpy,x2 = 0.4129,-0.0268 ± 0.000717 kcal/mol
same,excess molar enthalpy,x2 = 0.4153,-0.0268 ± 0.000717 kcal/mol
same,excess molar enthalpy,x2 = 0.4178,-0.0268 ± 0.000717 kcal/mol
same,excess molar enthalpy,x2 = 0.4203,-0.0265 ± 0.000717 kcal/mol
same,excess molar enthalpy,x2 = 0.4227,-0.0265 ± 0.000717 kcal/mol
same,excess molar enthalpy,x2 = 0.4251,-0.0265 ± 0.000717 kcal/mol
same,excess molar enthalpy,x2 = 0.4274,-0.0263 ± 0.000717 kcal/mol
same,excess molar enthalpy,x2 = 0.4298,-0.0263 ± 0.000717 kcal/mol
same,excess molar enthalpy,x2 = 0.4321,-0.0263 ± 0.000717 kcal/mol
same,excess molar enthalpy,x2 = 0.4345,-0.0261 ± 0.000717 kcal/mol
same,excess molar enthalpy,x2 = 0.4368,-0.0261 ± 0.000717 kcal/mol
same,excess molar enthalpy,x2 = 0.4391,-0.0258 ± 0.000717 kcal/mol
same,excess molar enthalpy,x2 = 0.4414,-0.0258 ± 0.000717 kcal/mol
same,excess molar enthalpy,x2 = 0.4436,-0.0258 ± 0.000717 kcal/mol
same,excess molar enthalpy,x2 = 0.446,-0.0256 ± 0.000717 kcal/mol
same,excess molar enthalpy,x2 = 0.4482,-0.0256 ± 0.000717 kcal/mol
same,excess molar enthalpy,x2 = 0.4505,-0.0256 ± 0.000717 kcal/mol
same,excess molar enthalpy,x2 = 0.4528,-0.0253 ± 0.000717 kcal/mol
same,excess molar enthalpy,x2 = 0.4551,-0.0253 ± 0.000717 kcal/mol
same,excess molar enthalpy,x2 = 0.4574,-0.0251 ± 0.000717 kcal/mol
same,excess molar enthalpy,x2 = 0.4597,-0.0251 ± 0.000717 kcal/mol
same,excess molar enthalpy,x2 = 0.462,-0.0251 ± 0.000717 kcal/mol
same,excess molar enthalpy,x2 = 0.4643,-0.0249 ± 0.000717 kcal/mol
same,excess molar enthalpy,x2 = 0.4666,-0.0249 ± 0.000717 kcal/mol
same,excess molar enthalpy,x2 = 0.4689,-0.0246 ± 0.000717 kcal/mol
same,excess molar enthalpy,x2 = 0.4712,-0.0246 ± 0.000717 kcal/mol
same,excess molar enthalpy,x2 = 0.4735,-0.0246 ± 0.000717 kcal/mol
same,excess molar enthalpy,x2 = 0.4758,-0.0244 ± 0.000717 kcal/mol
same,excess molar enthalpy,x2 = 0.4781,-0.0244 ± 0.000717 kcal/mol
same,excess molar enthalpy,x2 = 0.4804,-0.0241 ± 0.000717 kcal/mol
same,excess molar enthalpy,x2 = 0.4827,-0.0241 ± 0.000717 kcal/mol
same,excess molar enthalpy,x2 = 0.4849,-0.0241 ± 0.000717 kcal/mol
same,excess molar enthalpy,x2 = 0.4872,-0.0239 ± 0.000717 kcal/mol
same,excess molar enthalpy,x2 = 0.4895,-0.0239 ± 0.000717 kcal/mol
same,excess molar enthalpy,x2 = 0.4918,-0.0237 ± 0.000717 kcal/mol
same,excess molar enthalpy,x2 = 0.4941,-0.0237 ± 0.000717 kcal/mol
same,excess molar enthalpy,x2 = 0.4964,-0.0234 ± 0.000717 kcal/mol
same,excess molar enthalpy,x2 = 0.4987,-0.0234 ± 0.000717 kcal/mol
same,excess molar enthalpy,x2 = 0.501,-0.0234 ± 0.000717 kcal/mol
same,excess molar enthalpy,x2 = 0.5033,-0.0232 ± 0.000478 kcal/mol
same,excess molar enthalpy,x2 = 0.5056,-0.0232 ± 0.000478 kcal/mol
same,excess molar enthalpy,x2 = 0.5079,-0.0229 ± 0.000478 kcal/mol
same,excess molar enthalpy,x2 = 0.5102,-0.0229 ± 0.000478 kcal/mol
same,excess molar enthalpy,x2 = 0.5125,-0.0227 ± 0.000478 kcal/mol
same,excess molar enthalpy,x2 = 0.5148,-0.0227 ± 0.000478 kcal/mol
same,excess molar enthalpy,x2 = 0.5171,-0.0225 ± 0.000478 kcal/mol
same,excess molar enthalpy,x2 = 0.5193,-0.0225 ± 0.000478 kcal/mol
same,excess molar enthalpy,x2 = 0.5216,-0.0222 ± 0.000478 kcal/mol
same,excess molar enthalpy,x2 = 0.5239,-0.0222 ± 0.000478 kcal/mol
same,excess molar enthalpy,x2 = 0.5262,-0.0222 ± 0.000478 kcal/mol
same,excess molar enthalpy,x2 = 0.5285,-0.022 ± 0.000478 kcal/mol
same,excess molar enthalpy,x2 = 0.5308,-0.022 ± 0.000478 kcal/mol
same,excess molar enthalpy,x2 = 0.5331,-0.0217 ± 0.000478 kcal/mol
same,excess molar enthalpy,x2 = 0.5354,-0.0217 ± 0.000478 kcal/mol
same,excess molar enthalpy,x2 = 0.5377,-0.0215 ± 0.000478 kcal/mol
same,excess molar enthalpy,x2 = 0.54,-0.0215 ± 0.000478 kcal/mol
same,excess molar enthalpy,x2 = 0.5423,-0.0213 ± 0.000478 kcal/mol
same,excess molar enthalpy,x2 = 0.5446,-0.0213 ± 0.000478 kcal/mol
same,excess molar enthalpy,x2 = 0.5469,-0.021 ± 0.000478 kcal/mol
same,excess molar enthalpy,x2 = 0.5492,-0.021 ± 0.000478 kcal/mol
same,excess molar enthalpy,x2 = 0.5515,-0.0208 ± 0.000478 kcal/mol
same,excess molar enthalpy,x2 = 0.5538,-0.0208 ± 0.000478 kcal/mol
same,excess molar enthalpy,x2 = 0.5561,-0.0206 ± 0.000478 kcal/mol
same,excess molar enthalpy,x2 = 0.5584,-0.0206 ± 0.000478 kcal/mol
